Legend:
Parameters in all cases: scale not given: the % may be the effect or the level left
[1] = biological target: T1, Serine/threonine-protein kinase ULK1 (Homo sapiens) (UniProt O75385); test: Inhibition of human ULK1 assessed as enzyme activity at 1 uM using myelin basic protein as substrate preincubated for 20 mins followed by [gamma-33P]-ATP addition and measured after 120 mins by radiometric Hot-SpotSM Kinase assay relative to control
T1 sequence (whole entry): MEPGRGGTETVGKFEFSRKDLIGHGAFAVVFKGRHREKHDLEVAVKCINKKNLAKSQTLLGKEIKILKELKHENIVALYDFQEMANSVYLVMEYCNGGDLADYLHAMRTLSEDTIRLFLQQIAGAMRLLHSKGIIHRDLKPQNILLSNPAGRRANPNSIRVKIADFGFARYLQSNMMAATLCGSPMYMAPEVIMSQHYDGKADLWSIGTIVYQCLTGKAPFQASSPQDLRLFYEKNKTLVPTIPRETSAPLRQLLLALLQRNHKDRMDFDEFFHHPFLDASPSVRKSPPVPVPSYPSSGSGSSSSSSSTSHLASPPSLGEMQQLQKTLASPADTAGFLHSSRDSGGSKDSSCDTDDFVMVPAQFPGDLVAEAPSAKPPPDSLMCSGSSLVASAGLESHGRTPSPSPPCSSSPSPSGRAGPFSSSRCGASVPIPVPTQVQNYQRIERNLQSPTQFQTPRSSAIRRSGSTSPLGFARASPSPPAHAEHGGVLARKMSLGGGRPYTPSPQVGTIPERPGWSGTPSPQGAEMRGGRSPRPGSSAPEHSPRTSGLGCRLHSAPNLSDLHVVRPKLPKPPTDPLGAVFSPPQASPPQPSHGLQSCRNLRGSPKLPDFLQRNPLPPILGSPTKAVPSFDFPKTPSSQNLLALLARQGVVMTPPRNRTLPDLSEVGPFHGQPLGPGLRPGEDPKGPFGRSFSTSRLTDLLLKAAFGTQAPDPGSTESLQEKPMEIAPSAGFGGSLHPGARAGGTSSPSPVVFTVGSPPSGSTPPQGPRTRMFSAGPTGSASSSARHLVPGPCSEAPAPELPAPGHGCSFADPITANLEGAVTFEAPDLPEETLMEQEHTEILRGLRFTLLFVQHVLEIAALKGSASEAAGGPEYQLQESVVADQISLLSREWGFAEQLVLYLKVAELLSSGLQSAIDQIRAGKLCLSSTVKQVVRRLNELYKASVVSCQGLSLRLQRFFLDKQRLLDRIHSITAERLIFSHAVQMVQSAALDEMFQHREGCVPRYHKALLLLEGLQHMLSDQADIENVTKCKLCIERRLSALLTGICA

[2] = biological target: Bone morphogenetic protein receptor type-1B (Homo sapiens) (UniProt O00238); test: Inhibition of human ALK6 assessed as enzyme activity at 1 uM using casein as substrate preincubated for 20 mins followed by [gamma-33P]-ATP addition and measured after 120 mins by radiometric Hot-SpotSM Kinase assay relative to control
[3] = biological target: STE20-like serine/threonine-protein kinase (Homo sapiens) (UniProt Q9H2G2); test: Inhibition of human SLK assessed as enzyme activity at 1 uM using histone H3 as substrate preincubated for 20 mins followed by [gamma-33P]-ATP addition and measured after 120 mins by radiometric Hot-SpotSM Kinase assay relative to control
[4] = biological target: T2, Rhodopsin kinase GRK1 (Homo sapiens) (UniProt Q15835); test: Inhibition of human GRK1 assessed as enzyme activity at 1 uM using casein as substrate preincubated for 20 mins followed by [gamma-33P]-ATP addition and measured after 120 mins by radiometric Hot-SpotSM Kinase assay relative to control
T2 sequence (whole entry): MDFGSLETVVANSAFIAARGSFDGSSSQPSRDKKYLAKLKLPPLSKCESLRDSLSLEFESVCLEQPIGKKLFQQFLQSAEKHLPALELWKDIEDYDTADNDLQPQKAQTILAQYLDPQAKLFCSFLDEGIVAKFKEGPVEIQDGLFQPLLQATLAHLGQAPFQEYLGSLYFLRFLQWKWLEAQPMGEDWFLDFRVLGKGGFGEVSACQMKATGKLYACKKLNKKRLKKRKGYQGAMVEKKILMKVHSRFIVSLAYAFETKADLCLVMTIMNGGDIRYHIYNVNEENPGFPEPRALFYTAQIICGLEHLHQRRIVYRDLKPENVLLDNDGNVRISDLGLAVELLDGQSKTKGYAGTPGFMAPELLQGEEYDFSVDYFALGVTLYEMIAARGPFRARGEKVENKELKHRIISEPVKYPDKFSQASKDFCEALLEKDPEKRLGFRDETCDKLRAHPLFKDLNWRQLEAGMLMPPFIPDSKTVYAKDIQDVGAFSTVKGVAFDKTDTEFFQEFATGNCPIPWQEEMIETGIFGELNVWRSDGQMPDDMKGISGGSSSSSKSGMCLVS

[5] = biological target: Epithelial discoidin domain-containing receptor 1 (Homo sapiens) (UniProt Q08345); test: Inhibition of human DDR1 assessed as enzyme activity at 1 uM using KKSRGDYMTMQIG as substrate preincubated for 20 mins followed by [gamma-33P]-ATP addition and measured after 120 mins by radiometric Hot-SpotSM Kinase assay relative to control
[6] = biological target: Serine/threonine-protein kinase SIK3 (Homo sapiens) (UniProt Q9Y2K2); test: Inhibition of human SIK3 assessed as enzyme activity at 1 uM using AMARAASAAALARRR as substrate preincubated for 20 mins followed by [gamma-33P]-ATP addition and measured after 120 mins by radiometric Hot-SpotSM Kinase assay relative to control
[7] = biological target: Proto-oncogene tyrosine-protein kinase ROS (Homo sapiens) (UniProt P08922); test: Inhibition of human ROS assessed as enzyme activity at 1 uM using KKKSPGEYVNIEFG as substrate preincubated for 20 mins followed by [gamma-33P]-ATP addition and measured after 120 mins by radiometric Hot-SpotSM Kinase assay relative to control
Chain of Proto-oncogene tyrosine-protein kinase ROS (Homo sapiens) (P08922 whole entry): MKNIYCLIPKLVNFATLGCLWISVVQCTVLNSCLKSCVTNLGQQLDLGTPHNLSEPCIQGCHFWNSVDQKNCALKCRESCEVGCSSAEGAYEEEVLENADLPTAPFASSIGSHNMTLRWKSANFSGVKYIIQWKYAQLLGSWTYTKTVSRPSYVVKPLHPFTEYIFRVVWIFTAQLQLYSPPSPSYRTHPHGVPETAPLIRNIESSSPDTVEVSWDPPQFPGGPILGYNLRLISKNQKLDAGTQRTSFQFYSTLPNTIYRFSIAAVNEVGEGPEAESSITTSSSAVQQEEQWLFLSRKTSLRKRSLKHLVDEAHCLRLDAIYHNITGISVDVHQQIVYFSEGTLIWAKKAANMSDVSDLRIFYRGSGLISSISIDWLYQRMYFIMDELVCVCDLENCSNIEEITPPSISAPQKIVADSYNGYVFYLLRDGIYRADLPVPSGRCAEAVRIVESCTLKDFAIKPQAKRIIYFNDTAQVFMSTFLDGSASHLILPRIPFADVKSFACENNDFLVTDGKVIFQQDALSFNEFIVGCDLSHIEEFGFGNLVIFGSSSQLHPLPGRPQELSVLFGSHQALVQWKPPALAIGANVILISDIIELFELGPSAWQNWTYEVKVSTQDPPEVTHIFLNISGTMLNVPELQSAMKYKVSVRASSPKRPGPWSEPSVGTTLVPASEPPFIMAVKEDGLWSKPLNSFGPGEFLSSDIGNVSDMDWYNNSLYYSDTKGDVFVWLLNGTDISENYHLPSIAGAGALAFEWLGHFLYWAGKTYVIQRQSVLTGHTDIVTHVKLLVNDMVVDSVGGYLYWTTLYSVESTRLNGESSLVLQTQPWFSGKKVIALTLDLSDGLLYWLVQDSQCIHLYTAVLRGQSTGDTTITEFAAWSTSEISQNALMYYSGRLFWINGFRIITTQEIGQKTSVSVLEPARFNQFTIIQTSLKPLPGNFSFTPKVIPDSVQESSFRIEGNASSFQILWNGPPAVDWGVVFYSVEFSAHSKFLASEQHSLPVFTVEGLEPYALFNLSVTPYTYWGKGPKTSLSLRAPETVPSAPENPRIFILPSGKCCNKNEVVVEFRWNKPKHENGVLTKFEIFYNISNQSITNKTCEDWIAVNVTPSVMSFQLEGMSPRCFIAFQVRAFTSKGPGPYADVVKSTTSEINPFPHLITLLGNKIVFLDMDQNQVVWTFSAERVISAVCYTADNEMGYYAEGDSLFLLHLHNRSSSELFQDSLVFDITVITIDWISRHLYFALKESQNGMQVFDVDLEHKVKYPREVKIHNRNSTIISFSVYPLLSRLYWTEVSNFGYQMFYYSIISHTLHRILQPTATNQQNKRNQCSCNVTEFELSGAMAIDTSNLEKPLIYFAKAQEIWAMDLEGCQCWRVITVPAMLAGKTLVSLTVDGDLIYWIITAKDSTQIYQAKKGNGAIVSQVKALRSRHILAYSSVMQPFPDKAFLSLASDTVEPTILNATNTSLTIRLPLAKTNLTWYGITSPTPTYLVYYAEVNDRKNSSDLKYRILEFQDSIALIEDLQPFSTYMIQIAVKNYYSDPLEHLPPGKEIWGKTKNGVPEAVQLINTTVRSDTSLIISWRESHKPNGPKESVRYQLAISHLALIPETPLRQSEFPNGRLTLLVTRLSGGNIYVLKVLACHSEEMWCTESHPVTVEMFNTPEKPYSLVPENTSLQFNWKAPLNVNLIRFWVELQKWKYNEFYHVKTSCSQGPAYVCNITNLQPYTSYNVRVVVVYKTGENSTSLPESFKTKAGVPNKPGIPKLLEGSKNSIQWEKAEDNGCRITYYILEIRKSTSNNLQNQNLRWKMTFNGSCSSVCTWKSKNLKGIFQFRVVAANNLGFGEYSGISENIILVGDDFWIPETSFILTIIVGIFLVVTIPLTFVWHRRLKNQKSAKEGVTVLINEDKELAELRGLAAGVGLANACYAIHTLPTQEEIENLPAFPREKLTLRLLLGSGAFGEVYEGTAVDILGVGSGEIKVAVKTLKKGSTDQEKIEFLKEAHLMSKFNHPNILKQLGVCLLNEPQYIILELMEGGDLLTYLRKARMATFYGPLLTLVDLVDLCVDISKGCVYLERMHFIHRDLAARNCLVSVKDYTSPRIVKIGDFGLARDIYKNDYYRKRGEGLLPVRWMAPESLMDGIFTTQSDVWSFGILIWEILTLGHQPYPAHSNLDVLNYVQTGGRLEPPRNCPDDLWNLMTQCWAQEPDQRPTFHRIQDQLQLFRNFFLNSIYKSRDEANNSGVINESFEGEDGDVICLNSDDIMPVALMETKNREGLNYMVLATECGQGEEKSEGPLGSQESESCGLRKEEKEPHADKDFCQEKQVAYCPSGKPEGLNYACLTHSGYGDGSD

Chain of Bone morphogenetic protein receptor type-1B (Homo sapiens) (O00238 whole entry): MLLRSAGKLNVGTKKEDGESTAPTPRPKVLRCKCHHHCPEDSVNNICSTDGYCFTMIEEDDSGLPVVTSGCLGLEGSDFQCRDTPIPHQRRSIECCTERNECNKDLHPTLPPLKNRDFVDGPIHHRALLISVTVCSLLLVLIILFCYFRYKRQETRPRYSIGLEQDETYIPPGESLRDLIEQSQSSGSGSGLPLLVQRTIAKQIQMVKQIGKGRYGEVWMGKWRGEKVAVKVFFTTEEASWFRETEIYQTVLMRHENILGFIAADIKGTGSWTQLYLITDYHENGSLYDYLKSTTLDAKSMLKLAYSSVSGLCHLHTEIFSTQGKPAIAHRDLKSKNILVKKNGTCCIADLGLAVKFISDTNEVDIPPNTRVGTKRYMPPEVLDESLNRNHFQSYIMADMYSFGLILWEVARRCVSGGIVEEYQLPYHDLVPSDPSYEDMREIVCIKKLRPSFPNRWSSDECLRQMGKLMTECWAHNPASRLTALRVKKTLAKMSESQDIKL
Chain of Epithelial discoidin domain-containing receptor 1 (Homo sapiens) (Q08345 whole entry, the tested form may be a part): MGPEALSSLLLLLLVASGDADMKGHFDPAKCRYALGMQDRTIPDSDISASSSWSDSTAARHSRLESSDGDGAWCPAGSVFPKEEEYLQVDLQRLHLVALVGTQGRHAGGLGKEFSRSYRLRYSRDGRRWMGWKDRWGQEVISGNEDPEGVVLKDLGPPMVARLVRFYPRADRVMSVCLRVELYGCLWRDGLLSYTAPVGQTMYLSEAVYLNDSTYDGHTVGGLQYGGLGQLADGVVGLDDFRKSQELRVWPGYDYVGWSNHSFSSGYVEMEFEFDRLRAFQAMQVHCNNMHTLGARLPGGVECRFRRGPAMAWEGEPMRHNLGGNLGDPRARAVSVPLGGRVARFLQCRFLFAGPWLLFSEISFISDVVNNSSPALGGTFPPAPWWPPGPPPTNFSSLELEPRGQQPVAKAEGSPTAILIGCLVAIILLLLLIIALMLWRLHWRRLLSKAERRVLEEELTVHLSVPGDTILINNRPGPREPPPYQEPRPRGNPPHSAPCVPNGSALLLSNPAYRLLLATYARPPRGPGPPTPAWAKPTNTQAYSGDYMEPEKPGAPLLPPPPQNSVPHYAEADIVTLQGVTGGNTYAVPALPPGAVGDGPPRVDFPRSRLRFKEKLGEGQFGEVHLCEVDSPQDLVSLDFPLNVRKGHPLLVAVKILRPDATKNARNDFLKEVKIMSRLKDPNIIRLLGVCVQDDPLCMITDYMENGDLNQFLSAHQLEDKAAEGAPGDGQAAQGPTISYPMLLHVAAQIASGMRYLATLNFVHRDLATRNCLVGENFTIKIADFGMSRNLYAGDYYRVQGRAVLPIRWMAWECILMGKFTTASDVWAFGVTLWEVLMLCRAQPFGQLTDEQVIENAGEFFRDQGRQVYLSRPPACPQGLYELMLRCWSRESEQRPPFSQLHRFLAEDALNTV
Chain of STE20-like serine/threonine-protein kinase (Homo sapiens) (Q9H2G2 whole entry, looked up): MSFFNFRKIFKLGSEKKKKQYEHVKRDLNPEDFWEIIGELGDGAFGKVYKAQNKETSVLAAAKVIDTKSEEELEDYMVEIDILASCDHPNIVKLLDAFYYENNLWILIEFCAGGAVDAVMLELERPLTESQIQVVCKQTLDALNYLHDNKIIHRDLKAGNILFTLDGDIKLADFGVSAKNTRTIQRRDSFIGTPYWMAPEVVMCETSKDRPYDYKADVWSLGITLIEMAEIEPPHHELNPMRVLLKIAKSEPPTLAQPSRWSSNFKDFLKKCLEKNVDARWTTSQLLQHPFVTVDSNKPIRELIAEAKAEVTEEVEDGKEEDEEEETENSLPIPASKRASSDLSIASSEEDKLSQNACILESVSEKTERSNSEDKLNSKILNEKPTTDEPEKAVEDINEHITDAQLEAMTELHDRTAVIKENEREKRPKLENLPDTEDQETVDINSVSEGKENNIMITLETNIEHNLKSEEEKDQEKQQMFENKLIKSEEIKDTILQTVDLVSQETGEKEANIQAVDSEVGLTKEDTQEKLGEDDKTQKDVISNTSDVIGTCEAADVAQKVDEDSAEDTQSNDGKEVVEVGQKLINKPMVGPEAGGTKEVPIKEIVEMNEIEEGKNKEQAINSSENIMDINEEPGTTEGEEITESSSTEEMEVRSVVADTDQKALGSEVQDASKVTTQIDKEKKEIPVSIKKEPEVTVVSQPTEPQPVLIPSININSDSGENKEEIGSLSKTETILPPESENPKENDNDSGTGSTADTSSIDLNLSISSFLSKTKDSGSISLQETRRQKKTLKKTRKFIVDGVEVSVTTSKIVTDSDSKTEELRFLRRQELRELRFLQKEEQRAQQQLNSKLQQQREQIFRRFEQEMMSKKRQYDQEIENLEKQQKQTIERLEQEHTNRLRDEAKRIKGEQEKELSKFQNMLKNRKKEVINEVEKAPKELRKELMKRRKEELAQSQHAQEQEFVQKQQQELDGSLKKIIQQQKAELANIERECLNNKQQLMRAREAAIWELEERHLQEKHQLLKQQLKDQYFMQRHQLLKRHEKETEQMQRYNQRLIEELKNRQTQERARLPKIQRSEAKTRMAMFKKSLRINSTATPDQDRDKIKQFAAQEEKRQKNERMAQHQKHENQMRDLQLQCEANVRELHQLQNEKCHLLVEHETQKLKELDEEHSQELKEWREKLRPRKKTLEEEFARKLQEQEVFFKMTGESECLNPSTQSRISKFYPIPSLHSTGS

| SMILES | Activity [1] [%] | Activity [2] [%] | Activity [3] [%] | Activity [4] [%] | Activity [5] [%] | Activity [6] [%] | Activity [7] [%] |
| --- | --- | --- | --- | --- | --- | --- | --- |
| CC[C@H](Nc1ncnc2[nH]cnc12)c1nc2cccc(F)c2c(=O)n1-c1ccccc1 | 96.9 | 103 | 97.3 | 104 | 83.8 | 93.8 | 98 |
| C[C@H](Nc1ncnc2nc[nH]c12)c1cc2cccc(Cl)c2c(=O)n1-c1ccccc1 | 111 | 103 | 97.5 | 102 | 88.6 | 92.6 | 86.7 |
| CC(C)Oc1ccc(-c2nn([C@@H](C)c3oc4ccc(F)cc4c(=O)c3-c3cccc(F)c3)c3ncnc(N)c23)cc1F [UMBRALISIB] | 100 | 110 | 94.5 | 98.7 | 83.1 | 96.6 | 94.5 |
